Experimental data reported in patent EP0563281B1, “METHOD FOR PROCESSING ELECTRICALLY CONDUCTIVE POLYANILINES IN LEWIS-BASE SOLVENTS” (MONSANTO COMPANY, priority 1990, dated 1992).
Where two headings read alike, the source gives them in different places.

How the values were obtained:
[1] = cited from earlier work; for m: dipole moment; for mp: dipole moment of non-solvent
[2] = cited from earlier work
[3] = Hansen's method for solubility parameters and interaction distance r relative to polyaniline base; conditions: for r: Table 5, interaction distance to polyaniline base (17.4, 8.5, 10.4)
Excerpt: When multiple literature source were found with widely differing values, those sets of values were taken which were the closest to those theoretically predicted for the given solvent.

[4] = Solvent test with undoped (neutralized) polyaniline (Example 8); type: physicochemical; conditions: polyaniline synthesized as in Example 1, undoped with aqueous sodium carbonate
Procedure: A series of potential solvents with significant polar and hydrogen bonding contributions were tested with polyaniline which had been synthesized as in Example 1 and then undoped (neutralized) by treatment with an aqueous solution of sodium carbonate.

[5] = Table 5, Hansen parameter of the liquid
[6] = Table 4, Hildebrand (solubility) parameter
[7] = Table 4, dielectric constant relative to permittivity of free space
[8] = Table 4, relative sound velocity in paper wetted by the solvent (water = 100), hydrogen bonding capability
[9] = Table 6, second half, Hansen parameter of non-solvent
[10] = Table 6, Hansen parameter of non-solvent
[11] = Table 6, Hildebrand parameter of non-solvent

SMILES	dd [2, 5]	dh [2, 5]	dp [2, 5]	d [1, 6]	m ([1]; Table 4)	e [1, 7]	further results
Cc1ccccn1 [2-picoline]							e ([1]; Table 7, Dielectric Constant): 9.8; d ([1]; Table 7, Hildebrand Parameter): 20.9 MPa
O=C1CCCN1 [2-pyrrolidone]	19.4 MPa	11.3 MPa	17.4 MPa	28.4 MPa	7.7 10^-30 Cm		d ([1]; Table 7, Hildebrand Parameter): 28.4 MPa; r [3]: 99.8
CNNC [Dimethylhydrazine]	15.3 MPa	11.0 MPa	5.9 MPa	19.8 MPa			r [3]: 5.0
CN(C)C=O [Dimethylformamide]	17.4 MPa	11.3 MPa	13.7 MPa		11.2 10^-30 Cm	37.0	gw [1, 8]: 68.0
c1c[nH]cn1 [imidazole]							pKa ([1]; Table 7): 7.1
CN(C)N [1,1-dimethylhydrazine]							d ([1]; Table 7, Hildebrand Parameter): 19.8 MPa
CC(C)NC(C)C [diisopropylamine]							dh [2, 9]: 2.0 MPa; dp [2, 9]: 6.2 MPa; dd [2, 10]: 13.8 MPa; d [1, 11]: 15.2 MPa; predicted interaction distance (r) ([3]; Table 6, second half, Hansen Method): 11.3
CCCCN [butylamine]	13.6 MPa	8.0 MPa	8.1 MPa	18.6 MPa	4.7 10^-30 Cm	5.3	e ([1]; Table 7, Dielectric Constant): 5.3; d ([1]; Table 7, Hildebrand Parameter): 17.7 MPa; pKa ([1]; Table 7): 10.8
C1CCNCC1 [piperidine]							e ([1]; Table 7, Dielectric Constant): 5.8; d ([1]; Table 7, Hildebrand Parameter): 19.3 MPa; gw ([1]; Table 7, Hydrogen Bonding): 89.0
CCCN [propylamine]	13.9 MPa	7.2 MPa	9.3 MPa		4.7 10^-30 Cm	5.3	e ([1]; Table 7, Dielectric Constant): 5.3; pKa ([1]; Table 7): 10.8
Cc1ccccn1 [Picoline]	18.2 MPa	6.8 MPa	7.8 MPa	20.9 MPa	6.3 10^-30 Cm	9.8	r [3]: 4.0
CCCCc1ccc(N)cc1 [4-Butylaniline]							dh [2, 9]: 6.6 MPa; dp [2, 9]: 9.1 MPa; dd [2, 10]: 16.9 MPa; d [1, 11]: 20.4 MPa
NCCN [ethylenediamine]	16.6 MPa	17.0 MPa	8.8 MPa		6.6 10^-30 Cm	12.9	e ([1]; Table 7, Dielectric Constant): 12.9; pKa ([1]; Table 7): 10.1
C1COCCN1 [morpholine]	16.0 MPa	10.1 MPa	11.4 MPa	22.1 MPa	5.0 10^-30 Cm	7.3	gw [1, 8]: 200.0; e ([1]; Table 7, Dielectric Constant): 7.3; d ([1]; Table 7, Hildebrand Parameter): 22.1 MPa; gw ([1]; Table 7, Hydrogen Bonding): 200.0; r [3]: 4.0
c1ccncc1 [pyridine]	17.6 MPa	7.7 MPa	10.1 MPa		7.3 10^-30 Cm	12.3	gw [1, 8]: 80.0
CN1CCCC1=O [N-methyl-2-pyrrolidone]	16.5 MPa	13.5 MPa	10.4 MPa	23.7 MPa		32.0	solvent for undoped polyaniline [4]: solvent
CCCCN(CCCC)CCCC [tributylamine]							dh [2, 9]: 4.0 MPa; dp [2, 9]: 2.8 MPa; dd [2, 10]: 15.1 MPa; d [1, 11]: 15.9 MPa; mp ([1]; Table 6): 2.3 10^-30 Cm
CCNc1ccccc1 [N-Ethylaniline]							dh [2, 9]: 7.7 MPa; dp [2, 9]: 10.5 MPa; dd [2, 10]: 17.1 MPa; d [1, 11]: 21.5 MPa
CCCNCCC [dipropylamine]							dh [2, 9]: 5.8 MPa; dp [2, 9]: 6.2 MPa; dd [2, 10]: 14.0 MPa; d [1, 11]: 16.3 MPa
C1CCNC1 [pyrrolidine]					5.3 10^-30 Cm		
CCN(CC)CC [triethylamine]							dh [2, 9]: 1.9 MPa; dp [2, 9]: 3.7 MPa; dd [2, 10]: 14.6 MPa; d [1, 11]: 15.3 MPa; mp ([1]; Table 6): 2.2 10^-30 Cm
NCc1ccccc1 [benzylamine]							pKa ([1]; Table 7): 9.3
CN(C)P(=O)(N(C)C)N(C)C [hexamethylphosporamide]	18.3 MPa	11.3 MPa	8.6 MPa	23.2 MPa	17.6 10^-30 Cm	30.0	e ([1]; Table 7, Dielectric Constant): 30.0; d ([1]; Table 7, Hildebrand Parameter): 23.2 MPa; r [3]: 2.0
c1ccc2ncccc2c1 [quinoline]	19.4 MPa	7.6 MPa	7.0 MPa	22.0 MPa	7.6 10^-30 Cm	9.0	
Nc1ccccc1 [aniline]	19.4 MPa	10.0 MPa	5.1 MPa	22.6 MPa	5.0 10^-30 Cm	6.9	gw [1, 8]: 94.0; r [3]: 5.3
